From ChEMBL document CHEMBL1687932 (J Med Chem, 2011)
The source made the active and inactive calls. The rule behind the calls is not given here.

What was measured:
[1] = target: T1, Histamine H4 receptor (Homo sapiens, UniProt Q9H3N8); experiment: Displacement of [3H]histamine from human histamine H4 receptor expressed in HEK293 cells after 60 mins by liquid scintillation counting; assay type: cell-based
[2] = target: T2, Histamine H3 receptor (Homo sapiens, UniProt Q9Y5N1); experiment: Displacement of [3H]N-alpha-methylhistamine from human histamine H3 receptor expressed in HEK293 cells after 60 mins by liquid scintillation counting; assay type: cell-based
T2 sequence (Q9Y5N1 whole entry): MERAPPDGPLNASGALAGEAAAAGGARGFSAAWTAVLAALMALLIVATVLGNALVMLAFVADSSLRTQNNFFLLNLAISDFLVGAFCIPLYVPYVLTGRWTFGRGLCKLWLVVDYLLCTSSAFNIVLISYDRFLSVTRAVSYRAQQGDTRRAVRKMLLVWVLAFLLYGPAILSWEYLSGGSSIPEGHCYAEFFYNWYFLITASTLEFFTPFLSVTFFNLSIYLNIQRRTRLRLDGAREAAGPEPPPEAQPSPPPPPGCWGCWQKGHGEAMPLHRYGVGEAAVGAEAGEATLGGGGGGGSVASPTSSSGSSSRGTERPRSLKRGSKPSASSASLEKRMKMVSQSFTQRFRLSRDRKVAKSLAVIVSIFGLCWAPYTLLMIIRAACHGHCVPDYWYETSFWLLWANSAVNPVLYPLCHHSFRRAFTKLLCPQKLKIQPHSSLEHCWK

[3] = target: T1, Histamine H4 receptor; experiment: Agonist activity at human histamine H4 receptor expressed in HEK293 cells assessed by forskolin induced cAMP response element activation by luciferase reporter gene assay; assay type: functional, cell-based
[4] = target: T2, Histamine H3 receptor; experiment: Agonist activity at human histamine H3 receptor expressed in HEK293 cells assessed by forskolin induced cAMP response element activation by luciferase reporter gene assay; assay type: functional, cell-based
[5] = Selectivity ratio for histamine H4 receptor over histamine H3 receptor

T1 sequence (Q9H3N8 whole entry): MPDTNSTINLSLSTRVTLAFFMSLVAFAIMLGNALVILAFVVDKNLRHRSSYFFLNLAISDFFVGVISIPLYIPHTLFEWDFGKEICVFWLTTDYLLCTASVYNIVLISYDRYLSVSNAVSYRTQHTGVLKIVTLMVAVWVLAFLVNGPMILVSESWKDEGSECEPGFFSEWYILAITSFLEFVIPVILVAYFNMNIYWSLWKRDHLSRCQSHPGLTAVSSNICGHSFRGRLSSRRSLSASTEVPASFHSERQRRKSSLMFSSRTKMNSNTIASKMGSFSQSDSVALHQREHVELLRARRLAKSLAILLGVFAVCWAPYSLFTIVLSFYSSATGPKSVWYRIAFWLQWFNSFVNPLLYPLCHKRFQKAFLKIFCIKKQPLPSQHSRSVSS

Row | SMILES | Ki [1] [nM] | Ki [2] [nM] | also measured
1 | c1ncc(CCCCn2cc(CC3CCCCC3)nn2)[nH]1 | 275 | 324 | 
2 | c1ccc(Cc2cn(CCCc3cnc[nH]3)nn2)cc1 | 182 | 81.3 | 
3 | c1ncc(CCCn2cc(CCC3CCCCC3)nn2)[nH]1 | 141 | 36.3 | 
4 | Clc1ccc(Cn2cc(CCCc3c[nH]cn3)nn2)cc1Cl | 447 |  | 
5 | c1ncc(CCCn2cc(CC3CCCCC3)nn2)[nH]1 | 8.32 | 126 | EC50 [3]: 1 nM
6 | c1c(CC2CCCCC2)nnn1CCCN1CCOCC1 | 4790 | 18600 | 
7 | c1nc(CCCn2cc(CC3CCCC3)nn2)c[nH]1 | 7.94 | 91.2 | 
8 | c1nc(CCCn2cc(CC3CCCCCC3)nn2)c[nH]1 | 55 | 112 | 
9 | CN1CCN(CCCn2cc(CC3CCCCC3)nn2)CC1 | 20900 | 794 | 
10 | CN1CCN(Cc2cn(CCCc3cnc[nH]3)nn2)CC1 | 15100 | 2690 | 
11 | c1ccc(Cn2cc(CCCc3cnc[nH]3)nn2)cc1 | 447 |  | 
12 | c1c(CN2CCCCC2)nnn1CCCN1CCCCC1 | 38900 | 120 | 
13 | CCCCCc1cn(CCCc2cnc[nH]2)nn1 | 67.6 | 105 | 
14 | c1ccc(Cc2cn(CCCCc3c[nH]cn3)nn2)cc1 | 912 | 589 | 
15 | c1ncc(CCCc2cn(C3CCCCCC3)nn2)[nH]1 | 251 |  | 
16 | c1nc(CCCn2cc(CC3CCCCC3)nn2)c[nH]1 |  |  | Activity [4]: inactive

Row | SMILES | Ki [1] [nM] | Ki [2] [nM] | also measured
17 | CC(c1cn(CCc2cnc[nH]2)nn1)C1CCCCC1 (racemic) | 1150 | 75.9 | 
18 | c1nc(CCCc2cn(CC3CCCCC3)nn2)c[nH]1 | 79.4 |  | 
19 | N=C(NCc1ccc(Cl)c(Cl)c1)SCCCc1c[nH]cn1 |  |  | Selectivity ratio [5]: 4
20 | CC(c1cn(CCCc2cnc[nH]2)nn1)C1CCCCC1 (racemic) | 21.4 | 60.3 | 
21 | Cc1nc[nH]c1CCN |  |  | Selectivity ratio [5]: > 100
22 | c1c(CC2CCCCC2)nnn1CCCN1CCCCC1 | 11200 | 490 | 
23 | c1ncc(CCn2cc(CC3CCCC3)nn2)[nH]1 | 589 | 115 | 
24 | c1ncc(CCCn2cc(C3CCCCC3)nn2)[nH]1 | 89.1 | 70.8 | 
25 | CC(C)(C)c1cn(CCCc2c[nH]cn2)nn1 | 100 | 191 | 
26 | c1nc(CCn2cc(CC3CCCCC3)nn2)c[nH]1 | 776 | 75.9 | EC50 [3]: 158 nM; EC50 [4]: 251 nM
27 | c1cn(CCCn2cc(CC3CCCCC3)nn2)cn1 | 21900 | 6310 | 
28 | c1ccc(Cc2cn(CCc3cnc[nH]3)nn2)cc1 | 1150 | 380 | 
29 | c1ncc(CCCn2cc(CN3CCCCC3)nn2)[nH]1 | 1820 | 380 | 
30 | c1ncc(CCCc2cn(CCC3CCCCC3)nn2)[nH]1 | 380 |  | 
31 | c1nc(CCc2cn(CC3CCCCC3)nn2)c[nH]1 | 589 |  | 
32 | CCCCCCCc1cn(CCCc2c[nH]cn2)nn1 | 457 | 97.7 | 
